Measurements as given in patent US8865623B2, “Herbicidally active cyclic diones and derivatives thereof, processes for their preparation, compositions, and method of controlling weeds” (Syngenta Limited, priority 2009, dated 2014).

Key:
Type in all cases: in vivo
[1] = system: Echinochloa crus-galli (ECHCG); assay: Post-emergence herbicidal activity, glasshouse pot test; settings: Echinochloa crus-galli, 312 h, rate 250 g/ha, evaluated after 13 days, glasshouse, read-out: Post-emergence activity ECHCG (100=total damage to plant; 0=no damage to plant)
Procedure, shortened: (§1)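 Potted plants sprayed one day after sowing (pre-emergence) or after 8 days (post-emergence) with formulation in acetone/water (50:50) containing 0.5% Tween 20. Glasshouse at 24/16 °C, 14 h light, 65% humidity; damage scored after 13 days (0 none, 100 total).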

[2] = system: Lolium perenne (LOLPE); assay: as above; settings: Lolium perenne, 312 h, rate 250 g/ha, evaluated after 13 days, glasshouse, read-out: Post-emergence activity LOLPE (100=total damage to plant; 0=no damage to plant)
Procedure, shortened: as §1

[3] = system: Alopecurus myosuroides (ALOMY); assay: as above; settings: Alopecurus myosuroides, 312 h, rate 250 g/ha, evaluated after 13 days, glasshouse, read-out: Post-emergence activity ALOMY (100=total damage to plant; 0=no damage to plant)
Procedure, shortened: as §1

[4] = system: Avena fatua (AVEFA); assay: as above; settings: Avena fatua, 312 h, rate 250 g/ha, evaluated after 13 days, glasshouse, read-out: Post-emergence activity AVEFA (100=total damage to plant; 0=no damage to plant)
Procedure, shortened: as §1

[5] = system: Echinochloa crus-galli (ECHCG); assay: Pre-emergence herbicidal activity, glasshouse pot test; settings: Echinochloa crus-galli, 312 h; Rate 250 g/ha; pre-emergence spray; evaluated after 13 days; read-out: Pre-emergence activity ECHCG (100=total damage to plant; 0=no damage to plant)
Procedure, shortened: as §1

[6] = system: Lolium perenne (LOLPE); assay: as above; settings: Lolium perenne, 312 h; Rate 250 g/ha; pre-emergence spray; evaluated after 13 days; read-out: Pre-emergence activity LOLPE (100=total damage to plant; 0=no damage to plant)
Procedure, shortened: as §1

[7] = system: Alopecurus myosuroides (ALOMY); assay: as above; settings: Alopecurus myosuroides, 312 h; Rate 250 g/ha; pre-emergence spray; evaluated after 13 days; read-out: Pre-emergence activity ALOMY (100=total damage to plant; 0=no damage to plant)
Procedure, shortened: as §1

[8] = system: Avena fatua (AVEFA); assay: as above; settings: Avena fatua, 312 h; Rate 250 g/ha; pre-emergence spray; evaluated after 13 days; read-out: Pre-emergence activity AVEFA (100=total damage to plant; 0=no damage to plant)
Procedure, shortened: as §1

Compound | pest or weed control at 250 g/ha [1] | pest or weed control at 250 g/ha [2] | pest or weed control at 250 g/ha [3] | pest or weed control at 250 g/ha [4] | pest or weed control at 250 g/ha [5] | pest or weed control at 250 g/ha [6] | pest or weed control at 250 g/ha [7] | pest or weed control at 250 g/ha [8]
CCc1ccc(Oc2nc(F)c(Cl)c(OC)c2Cl)cc1C1=C(O)C(C)(C)OC(C)(C)C1=O [Example A-222] | 30% | 30% | 20% | 20% | 0% | 0% | 0% | 0%
CCc1ccc(Oc2ccc3ccccc3n2)cc1C1=C(O)C(C)(C)OC(C)(C)C1=O [Example A-223] | 100% | 90% | 100% | 60% | 100% | 90% | 80% | 50%
CCc1ccc(Oc2ccc(Cl)cc2C#N)cc1C1=C(O)C(C)(C)OC(C)(C)C1=O [Example A-224] | 70% | 70% | 50% | 50% | 20% | 30% | 20% | 10%
CCc1ccc(Oc2ccc(Br)cc2C#N)cc1C1=C(O)C(C)(C)OC(C)(C)C1=O [Example A-225] | 90% | 70% | 60% | 50% | 60% | 10% | 0% | 0%
CCc1ccc(Oc2ccc(Cl)cc2[N+](=O)[O-])cc1C1=C(O)C(C)(C)OC(C)(C)C1=O [Example A-226] | 100% | 60% | 60% | 60% | 60% | 30% | 0% | 10%
CCc1ccc(Oc2ccc(Br)cc2[N+](=O)[O-])cc1C1=C(O)C(C)(C)OC(C)(C)C1=O [Example A-227] | 90% | 70% | 70% | 60% | 80% | 60% | 30% | 20%
CCc1ccc(Oc2nc3cc(Cl)ccc3s2)cc1C1=C(O)C(C)(C)OC(C)(C)C1=O [Example A-229] | 100% | 100% | 90% | 10% | 70% | 60% | 30% | 0%
CCc1ccc(Oc2ccc(F)cc2[N+](=O)[O-])cc1C1=C(O)C(C)(C)OC(C)(C)C1=O [Example A-230] | 80% | 40% | 20% | 60% | 20% | 0% | 0% | 0%
CCc1ccc(Oc2cnc3cc(Cl)ccc3n2)cc1C1=C(O)CC2(CCOCC2)CC1=O [Example A-233] | 100% | 100% | 100% | 100% | 100% | 90% | 70% | 70%
CCc1ccc(Oc2ccc(Br)cc2)cc1C1=C(O)[C@@H]2CC[C@](C)(C1=O)C2(C)C [Example A-234] | 100% | 80% | 80% | 90% | 100% | 90% | 70% | 40%
CCc1ccc(Oc2ccc3cc(Cl)ccc3n2)cc1C1=C(O)[C@@H]2CC[C@](C)(C1=O)C2(C)C [Example A-235] | 100% | 100% | 90% | 100% | 100% | 70% | 50% | 30%
CCc1ccc(Oc2nc3ccc(Cl)cc3[n+]([O-])n2)cc1C1=C(O)C(C)(C)OC(C)(C)C1=O [Example A-236] | 100% | 30% | 100% | 100% | 80% | 20% | 40% | 20%
CCc1ccc(Oc2nnc3cc(Cl)ccc3n2)cc1C1=C(O)C(C)(C)OC(C)(C)C1=O [Example A-237] | 70% | 10% | 10% | 10% | 40% | 20% | 10% | 10%
CCc1ccc(Oc2ccc(Br)cc2F)cc1C1=C(O)[C@@H]2CC[C@](C)(C1=O)C2(C)C [Example A-238] | 100% | 90% | 70% | 90% | 100% | 90% | 60% | 40%
CCc1ccc(Oc2ccc(F)cc2)cc1C1=C(O)[C@@H]2CC[C@](C)(C1=O)C2(C)C [Example A-239] | 70% | 30% | 20% | 10% | 90% | 60% | 20% | 0%
CCc1ccc(Oc2ccc(Br)cc2Cl)cc1C1=C(O)[C@@H]2CC[C@](C)(C1=O)C2(C)C [Example A-240] | 70% | 60% | 30% | 40% | 70% | 70% | 30% | 0%
CCc1ccc(Oc2ccc(Br)c(Cl)c2)cc1C1=C(O)[C@@H]2CC[C@](C)(C1=O)C2(C)C [Example A-241] | 90% | 60% | 40% | 70% | 80% | 70% | 30% | 0%
CCc1ccc(Oc2ccc(Br)cc2Cl)cc1C1=C(O)[C@H]2CC[C@H](C2)C1=O [Example A-244] | 90% | 80% | 60% | 70% | 90% | 70% | 20% | 0%
CCc1ccc(Oc2cccc(Br)c2)cc1C1=C(O)[C@H]2CC[C@H](C2)C1=O [Example A-245] | 80% | 20% | 0% | 10% | 80% | 50% | 0% | 0%
CCc1ccc(Oc2ccc(F)c(Cl)c2)cc1C1=C(O)[C@H]2CC[C@H](C2)C1=O [Example A-246] | 100% | 20% | 50% | 60% | 100% | 60% | 70% | 50%
CCc1ccc(Oc2ccc(Br)c(Cl)c2)cc1C1=C(O)[C@H]2CC[C@H](C2)C1=O [Example A-247] | 100% | 100% | 90% | 100% | 100% | 90% | 90% | 50%
